Measurements taken from ChEMBL document CHEMBL1134100, “An unhydrolyzable analogue of N-(4-hydroxyphenyl)retinamide. synthesis and preliminary biological studies” (Bioorg Med Chem Lett, 2001).

How the values were obtained:
Rattus norvegicus [1] = assay: Effect on total mammary tumor volume in female rats on day 7 after a diet additive of 2 mmol/kg (+/-S.E) (p<0.05); format: functional
Rattus norvegicus [2] = assay: Effect on total mammary tumor volume in female rats on day 1 after a diet additive of 2 mmol/kg (+/-S.E) (p<0.05); format: functional
Rattus norvegicus [3] = assay: Effect on total mammary tumor volume in female rats on day 14 after a diet additive of 2 mmol/kg (+/-S.E) (p<0.05); format: functional
Rattus norvegicus [4] = assay: Effect on total mammary tumor volume in female rats on day 21 after a diet additive of 2 mmol/kg (+/-S.E) (p<0.05); format: functional
Rattus norvegicus [5] = assay: % change in the mean tumor volume in female rats on 21 days after a diet additive of 2 mmol/kg of the compound; format: functional
[6] = target: T1, Retinoic acid receptor gamma (Homo sapiens, UniProt P13631); assay: Binding affinity against Retinoic acid receptor gamma
T1 sequence (P13631 whole entry): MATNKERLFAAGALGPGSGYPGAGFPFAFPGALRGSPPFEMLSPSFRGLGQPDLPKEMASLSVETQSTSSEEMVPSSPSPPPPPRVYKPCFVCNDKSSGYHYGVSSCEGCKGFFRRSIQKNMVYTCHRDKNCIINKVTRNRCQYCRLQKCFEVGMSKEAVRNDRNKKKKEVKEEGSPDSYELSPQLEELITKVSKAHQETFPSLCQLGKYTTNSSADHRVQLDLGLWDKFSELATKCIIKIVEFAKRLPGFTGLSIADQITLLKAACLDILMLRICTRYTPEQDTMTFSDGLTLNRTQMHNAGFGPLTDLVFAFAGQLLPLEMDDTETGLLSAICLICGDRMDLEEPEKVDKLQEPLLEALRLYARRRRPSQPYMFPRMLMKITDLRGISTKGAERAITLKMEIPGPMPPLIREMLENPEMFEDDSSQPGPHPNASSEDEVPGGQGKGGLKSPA

SMILES | Mean tumor volume (Rattus norvegicus [1]) [cm*3] | Mean tumor volume (Rattus norvegicus [2]) [cm*3] | Mean tumor volume (Rattus norvegicus [3]) [cm*3] | Mean tumor volume (Rattus norvegicus [4]) [cm*3] | Change (Rattus norvegicus [5]) [%] | Ki [6] [nM]
CC1=C(/C=C/C(C)=C/C=C/C(C)=C/C(=O)Cc2ccc(O)cc2)C(C)(C)CCC1 | 0.47 | 0.59 | 0.15 | 0.09 | -85 | > 4000
CC1=C(/C=C/C(C)=C/C=C/C(C)=C/C(=O)O)C(C)(C)CCC1 [TRETINOIN] | 0.46 | 0.69 | 0.27 | 0.18 | -74 | –
CC1=C(/C=C/C(C)=C/C=C/C(C)=C/C(=O)Nc2ccc(O)cc2)C(C)(C)CCC1 [FENRETINIDE] | 0.17 | 0.2 | 0.1 | 0.05 | -77 | > 400
